Here are results for 1 molecule from patent US9248202B2, “Two-photon probe for detecting copper(II) ion and quantitative estimation of copper(II) ion in human tissue using the same” (Korea University Research and Business Foundation, priority 2014, dated 2016).

One data set relates to human colon tissue. Nature of the data set: Quantitative estimation of copper(II) ion in human colon tissue by TPM. The note with it: for average Ired/Iblue ratio: 20 μM ACCu2. From the text:
Colon slices were obtained from outpatients who underwent elective colonoscopies at the Korea University Medical Center Anam Hospital. The volunteers were recruited to participate in the experiment, which was approved by the hospital ethics committee, and all the participating patients provided informed consents. The patients who had known or suspected bleeding disorders, an international normalized ratio of prothrombin time exceeding 1.4 a platelet count of <100,000 or who had taken aspirin within the previous 5 days were excluded.
During the colonoscopy examination, tissues were obtained from malignant lesions, adenomas and normal mucosa by biopsy forceps. Normal colon mucosal and adenoma or adenocarcinoma tissues were collected from the same patient. Standard biopsy forceps (Olympus Medical Systems Corporation, Tokyo, Japan) were used to obtain paired mucosal pinch biopsy specimens from the colon. 28, 10 and 6 tissue samples were acquired from normal, polyp and cancer tissues, respectively. The tissues were placed in sterile specimen bottles containing PBS. Half of the normal tissue samples were treated with EDTA (1 M) for 40 minutes. Then, the tissue samples were stained with 20 μM ACCu2 in artificial spinal fluid for 1-2 hours at 37.8° C. and then imaged.
As a result, clinical important images were obtained at depths of 90-190 μm in the mucosal and submucosal layers, as shown in FIG. 11(a).

In a further data set the test system is HeLa cells. Put plainly: Photostability in labeled HeLa cells. Also on record: dose or concentration left out as unconfirmed. It is filed as cell-based, human. The conditions noted are these: ACCu2-labeled HeLa cells, fs-pulses for 60 minutes. The protocol:
The photostability of ACCu2 was determined by monitoring the change in TP excited fluorescence (TPEF) intensity from ACCu2 ([…])-labeled HeLa cells. […] This confirms that ACCu2 according to the present disclosure has high photostability and can measure the copper(II) ion concentration in living cells with minimum interference.

[1] abbreviates: EDTA-treated normal colon tissue.

Turning to `COCCOCCOCCOc1ccc2c(ccc3cc(C(=O)N4CCN(C(=O)c5ccc(CNC(=O)c6cc7cc8ccc(N(C)C)cc8cc7oc6=O)nc5)CC4)c(=O)oc32)c1` [ACCu2], the “copper(II) ion concentration” value in the data set on human colon tissue (setting [1]) is 0.0 ± 0.1 µM; with human colon tissue (cancer colon tissue) it was 22 ± 3 µM; in the data set with human colon tissue (normal colon tissue) it was 8.2 ± 0.3 µM; in the data set with human colon tissue (polyp colon tissue) it was 13 ± 2 µM. The “average Ired/Iblue ratio” value in the data set on human colon tissue (setting [1]) was 10.0±0.3; in the data set with human colon tissue (cancer colon tissue) it was 5.2±0.6; in the data set with human colon tissue (normal colon tissue) it was 8.3±0.4; in the data set on human colon tissue (polyp colon tissue), 7.2±0.5. Also, the “photostability: TPEF intensity after continuous radiation” value in the data set on HeLa cells was “remained nearly the same”.
